Assay results published in the supplement of paper PMC13207355.

Key:
Details in all cases: exposure time: 72 h
E13 [1] = patient-derived glioblastoma stem cells of classical subtype; assay: surviving fraction (nuclei count normalised to DMSO); higher = more cells surviving (less toxic)
E21 [2] = patient-derived glioblastoma stem cells of mesenchymal subtype; assay: as above
E28 [3] = patient-derived glioblastoma stem cells of classical subtype; assay: as above
E31 [4] = patient-derived glioblastoma stem cells of proneural subtype; assay: as above
E34 [5] = patient-derived glioblastoma stem cells of proneural subtype; assay: as above
E57 [6] = patient-derived glioblastoma stem cells of mesenchymal subtype; assay: as above
FT3469 [7] = normal neural stem cell line; assay: as above
E13 [8] = assay: phenotypic distance (Euclidean, principal components) from DMSO controls (arbitrary units); higher = stronger morphological change
E21 [9] = assay: as above
E28 [10] = assay: as above
E31 [11] = assay: as above
E34 [12] = assay: as above
E57 [13] = assay: as above
FT3469 [14] = assay: as above
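For phenotypic distance (Euclidean, principal components) from DMSO controls in this document: cell Painting imaging in 384-well plates, CellProfiler features reduced to at least 20 principal components, Euclidean distance versus same-plate DMSO vehicle wells (0.1% v/v), median over six images per well.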
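For surviving fraction (nuclei count normalised to DMSO) in this document: nuclei counted by high-content imaging of Hoechst-stained cells in laminin-coated 384-well plates, relative to 0.1% DMSO vehicle wells, with staurosporine as cell-death control.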

COC(=O)Nc1nc2cc(C(=O)c3ccccc3)ccc2[nH]1 [Mebendazole]
Details	phenotypic distance	surviving fraction
E13 [1], 4.1 nM	–	0.79
E13 [1], 12.3 nM	–	0.88
E13 [1], 37 nM	–	0.816
E13 [1], 111.1 nM	–	0.465
E13 [1], 333.3 nM	–	0.22
E13 [1], 1000 nM	–	0.203
E13 [1], 3000 nM	–	0.221
E13 [8], 4.1 nM	1.43	–
E13 [8], 12.3 nM	1.24	–
E13 [8], 37 nM	2.04	–
E13 [8], 111.1 nM	4.4	–
E13 [8], 333.3 nM	7.15	–
E13 [8], 1000 nM	6.93	–
E13 [8], 3000 nM	7.2	–
E21 [2], 4.1 nM	–	0.964
E21 [2], 12.3 nM	–	0.942
E21 [2], 37 nM	–	0.868
E21 [2], 111.1 nM	–	0.707
E21 [2], 333.3 nM	–	0.138
E21 [2], 1000 nM	–	0.144
E21 [2], 3000 nM	–	0.187
E21 [9], 4.1 nM	1.49	–
E21 [9], 12.3 nM	1.54	–
E21 [9], 37 nM	1.52	–
E21 [9], 111.1 nM	2.75	–
E21 [9], 333.3 nM	7.72	–
E21 [9], 1000 nM	7.67	–
E21 [9], 3000 nM	6.82	–
E28 [3], 4.1 nM	–	1.01
E28 [3], 12.3 nM	–	0.992
E28 [3], 37 nM	–	0.943
E28 [3], 111.1 nM	–	0.731
E28 [3], 333.3 nM	–	0.444
E28 [3], 1000 nM	–	0.288
E28 [3], 3000 nM	–	0.426
E28 [10], 4.1 nM	0.755	–
E28 [10], 12.3 nM	0.838	–
E28 [10], 37 nM	1.05	–
E28 [10], 111.1 nM	2.06	–
E28 [10], 333.3 nM	3.8	–
E28 [10], 1000 nM	4.27	–
E28 [10], 3000 nM	4.73	–
E31 [4], 4.1 nM	–	0.817
E31 [4], 12.3 nM	–	0.859
E31 [4], 37 nM	–	0.71
E31 [4], 111.1 nM	–	0.417
E31 [4], 333.3 nM	–	0.132
E31 [4], 1000 nM	–	0.1
E31 [4], 3000 nM	–	0.114
E31 [11], 4.1 nM	1.27	–
E31 [11], 12.3 nM	0.909	–
E31 [11], 37 nM	1.1	–
E31 [11], 111.1 nM	2.77	–
E31 [11], 333.3 nM	5.6	–
E31 [11], 1000 nM	5.55	–
E31 [11], 3000 nM	4.51	–
E34 [5], 4.1 nM	–	0.922
E34 [5], 12.3 nM	–	0.961
E34 [5], 37 nM	–	0.917
E34 [5], 111.1 nM	–	0.664
E34 [5], 333.3 nM	–	0.432
E34 [5], 1000 nM	–	0.403
E34 [5], 3000 nM	–	0.384
E34 [12], 4.1 nM	0.931	–
E34 [12], 12.3 nM	0.785	–
E34 [12], 37 nM	1.36	–
E34 [12], 111.1 nM	2.23	–
E34 [12], 333.3 nM	3.56	–
E34 [12], 1000 nM	3.98	–
E34 [12], 3000 nM	6.31	–
E57 [6], 4.1 nM	–	1
E57 [6], 12.3 nM	–	1.06
E57 [6], 37 nM	–	0.876
E57 [6], 111.1 nM	–	0.784
E57 [6], 333.3 nM	–	0.148
E57 [6], 1000 nM	–	0.0727
E57 [6], 3000 nM	–	0.092
E57 [13], 4.1 nM	1.09	–
E57 [13], 12.3 nM	0.846	–
E57 [13], 37 nM	1.77	–
E57 [13], 111.1 nM	2.71	–
E57 [13], 333.3 nM	5.36	–
E57 [13], 1000 nM	5.62	–
E57 [13], 3000 nM	4.64	–
FT3469 [7], 4.1 nM	–	0.984
FT3469 [7], 12.3 nM	–	1.02
FT3469 [7], 37 nM	–	0.772
FT3469 [7], 111.1 nM	–	0.663
FT3469 [7], 333.3 nM	–	0.648
FT3469 [7], 1000 nM	–	0.56
FT3469 [7], 3000 nM	–	0.566
FT3469 [14], 4.1 nM	0.995	–
FT3469 [14], 12.3 nM	0.806	–
FT3469 [14], 37 nM	0.927	–
FT3469 [14], 111.1 nM	2.1	–
FT3469 [14], 333.3 nM	3.21	–
FT3469 [14], 1000 nM	3.43	–
FT3469 [14], 3000 nM	3.34	–
